Source: PMC5559490, “Synthesis of Saccharumoside-B analogue with potential of antiproliferative and pro-apoptotic activities” (Scientific Reports, 2017)

System: Bax
Assay: Quantification of Bax (immunometric assay), MCF-7
Format: cell-based, human
Details: MCF-7 cells; compared to untreated cells
Procedure: Bax protein concentration determination was carried out using the Human Bax Enzyme Immunometric Assay kit (Assay Designs, Ann Arbor, MI, USA). The lysate (sample) preparation was carried out according to the manual. Following centrifugation (16,000 g for 15 min), the cells were resuspended in Modified Cell lysis buffer 4 [0.5 μL/mL of Sigma Protease Inhibitor Cocktail and 1 mM phenylmethylsulfonyl fluoride (PMSF)]. Cell lysate (100 μL) (sample) was added into the wells coated with monoclonal antibody to human Bax-α in triplicate. The plate was tapped gently to mix the contents. The sample was incubated at room temperature on a plate shaker for 1 h. The wells were emptied and washed with 5X wash buffer. After the final wash, the plate was tapped gently on a lint free paper towel to remove any remaining wash buffer. The sample was incubated again for 1 h at room temperature on a plate shaker after the addition of 100 μL of specific antibody (biotinylated monoclonal antibody to Bax-α) into each well. The wells were washed again with 5X wash buffer and emptied. Next, 100 μL of blue conjugate (streptavidin conjugated to horseradish peroxidase) was added into each well. […] The optical densities were read at 450 and 570 nm using an ELISA reader. Bax protein concentration was determined from the standard protein graphic using the optical densities of the samples[32].

COc1cc(CO)ccc1OC1OC(COC(=O)c2ccc(F)cc2)C(O)C(O)C1O (stereo not shown) [Compound 9f, (6-(4-(hydroxymethyl)-2-methoxyphenoxy)-tetrahydro-3,4,5-trihydroxy-2H-pyran-2-yl)methyl 4-fluorobenzoate]
effect on Bax protein levels: dose dependently increased
